According to patent US5312816A, “Method of combatting osteoporosis in mammalian subjects, utilizing organic boron compounds” (priority 1993, dated 1994):

Legend:
in vivo = settings: mouse, Table 1, N=6
Procedure: Amine borane compounds (0 to 100 mg/kg) were administered to CF1 male mice as a single injection with six mice for each dosage. Mice were weighed daily and the number of deaths was recorded each day for a 14 day period. The LD50 value was determined by the procedure of S.C. Gad and C.S. Weil, "Statistics for Toxicologists" in Principles and Methods of Toxicology, A.W. Hayes, Ed., 2nd Edition, P 435-483 Raven Press, New York 1982.

Cf1 male mice [1] = assay: Anti-inflammatory screen, Winter's test, 2% carrageenan hind foot; assay type: in vivo; settings: Table 1; drugs 8 or 10 mg/kg I.P. 2X; Indomethacin 10 mg/kg
Procedure: Anti-inflammatory Screen- Cf1 - male mice-Winter's Test 2% carrageenan S.C. plantar surface of hind foot, drugs administered @8 or 10 mg/kg I.P. 2X
Winter, C.A., et al, Proc. Soc.

Sprague Dawley Rats = assay: Anti-inflammatory activity in Sprague Dawley rats; assay type: in vivo; settings: Table IV; 8 mg/kg I.P.
Cf1 male mice [2] = assay: Writhing reflex, 0.6% acetic acid; assay type: in vivo; settings: Table 1; Indomethacin 10 mg/kg
Procedure: Writhing reflex- Cf1 -male mice- 0.6% acetic acid I.P. drugs administered @20 mg/kg/ I.P. 20 min. later - the # of stretches/10 min.
Hendershot, L.C., et al, J.

Sprague Dawley male rats [3] = assay: Chronic adjuvant arthritis screen, Mycobacterium butyricum; assay type: in vivo; settings: Table 1; Indomethacin 10 mg/kg
Sprague Dawley male rats [4] = assay: Anti-pleurisy screen, Evans blue + carrageenan; assay type: in vivo; settings: Table 1
Acid phosphatase [5] = assay: Mouse hepatic lysosomal acid phosphatase activity; assay type: biochemical; settings: for IC50: Table V, mouse hepatic, 60 min incubation
Text: (§1) 1. Cf1 male mouse hepatic 10% homogenates in 0.25M sucrose+0.001MEDTA,pH 7.2.
(§2) Lysosomal Enzymes - free and total [triton X-100].
(§3) 1. Acid phosphatase -beta glycerol-3-phosphate, pH 5.0, released IP 720 nm.
Acid phosphatase activity -

Cathepsin D [6] = target: T1, Cathepsin D (Mus musculus, UniProt P18242); assay: Mouse hepatic lysosomal cathepsin D activity; assay type: biochemical; settings: for IC50: read-out: Cathepsin D IC50, Table V, mouse hepatic, 60 min incubation
T1 construct: azocasein assay pH 5.0
T1 sequence (P18242 65-410): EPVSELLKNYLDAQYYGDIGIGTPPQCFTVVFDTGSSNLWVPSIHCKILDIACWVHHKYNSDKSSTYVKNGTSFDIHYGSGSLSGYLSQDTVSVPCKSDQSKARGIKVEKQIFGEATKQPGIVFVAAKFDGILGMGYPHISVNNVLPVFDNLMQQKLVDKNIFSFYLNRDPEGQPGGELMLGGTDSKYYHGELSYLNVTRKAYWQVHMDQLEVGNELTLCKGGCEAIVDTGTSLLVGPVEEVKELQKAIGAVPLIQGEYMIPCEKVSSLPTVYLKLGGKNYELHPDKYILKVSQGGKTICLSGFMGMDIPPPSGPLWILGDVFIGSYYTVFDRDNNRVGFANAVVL
Text: as §1, §2
(§4) 2. Acid Cathepsin D -azocasein-pH 5.0, hydrolytic azo-peptide produce 366 nm.
Cathepsin azo casein activity -

Acid phosphatase [7] = assay: Rat PMNs acid phosphatase activity; assay type: cell-based; settings: 5 × 10^-6 M, N=6; 5 µM
Text: (§5) 2. PMNs-polymorphonuclear neutrophils-rat peritoneal cavity 0.5% oyster glycogen.
as §3

Cathepsin [8] = target: T2, Cathepsin (Rattus norvegicus, UniProt P24268); assay: Rat PMNs cathepsin activity; assay type: cell-based; settings: pH 5; 5 × 10^-6 M, N=6; read-out: Rat PMNs Cathep.
T2 construct: azocasein assay pH 5.0
T2 sequence (P24268 65-407): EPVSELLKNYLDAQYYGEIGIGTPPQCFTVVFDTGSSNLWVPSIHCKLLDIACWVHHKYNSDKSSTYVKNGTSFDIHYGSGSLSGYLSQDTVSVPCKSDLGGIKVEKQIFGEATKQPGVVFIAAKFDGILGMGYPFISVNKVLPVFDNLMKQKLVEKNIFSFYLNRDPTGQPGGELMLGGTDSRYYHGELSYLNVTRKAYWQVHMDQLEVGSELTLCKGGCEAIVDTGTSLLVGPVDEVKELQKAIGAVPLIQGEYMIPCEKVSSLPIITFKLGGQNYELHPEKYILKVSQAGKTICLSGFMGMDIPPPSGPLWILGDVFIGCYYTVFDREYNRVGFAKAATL
Text: as §5, §4

cAMP = assay: PMNs cAMP levels, Gilman's radioimmune assay; assay type: cell-based, rat; settings: 5 × 10^-6 M, N=6
Text: as §5
cAMP levels Gilman's radioimmune assay. ^3 H(G)Cyclic-3', 5'-adenosine monophosphate.

Prostaglandin synthetase = target: T3, Prostaglandin synthetase (Bos taurus, UniProt O62664); assay: Prostaglandin synthetase (cyclooxygenase), purified beef seminal vesicle; assay type: biochemical
T3 construct: Prostaglandin synthetase purified beef seminal vesicle; from tissue
T3 sequence (O62664 25-600): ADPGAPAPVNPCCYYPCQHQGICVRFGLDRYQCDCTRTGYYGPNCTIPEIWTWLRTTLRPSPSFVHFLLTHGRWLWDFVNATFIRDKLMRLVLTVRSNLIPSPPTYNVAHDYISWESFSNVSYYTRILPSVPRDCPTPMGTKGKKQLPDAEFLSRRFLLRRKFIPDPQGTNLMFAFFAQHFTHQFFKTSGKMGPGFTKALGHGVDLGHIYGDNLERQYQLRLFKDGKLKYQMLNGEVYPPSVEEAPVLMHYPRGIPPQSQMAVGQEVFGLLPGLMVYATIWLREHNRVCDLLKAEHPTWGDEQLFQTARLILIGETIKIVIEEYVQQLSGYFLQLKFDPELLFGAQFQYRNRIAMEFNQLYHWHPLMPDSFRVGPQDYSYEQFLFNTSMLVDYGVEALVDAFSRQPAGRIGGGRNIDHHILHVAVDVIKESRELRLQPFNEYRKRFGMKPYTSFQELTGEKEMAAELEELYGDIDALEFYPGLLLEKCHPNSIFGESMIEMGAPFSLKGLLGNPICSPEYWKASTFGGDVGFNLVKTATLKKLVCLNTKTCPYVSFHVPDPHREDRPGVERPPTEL
Text: (§6) Prostaglandin synthetase purified beef seminal vesicle ^3 H arachidonic acid (86.2 Ci/mmol), tlc separation.

[9] = system: Hepatic oxidative phosphorylation; assay: Hepatic oxidative phosphorylation, Gilson oxygraph; assay type: biochemical, mouse; settings: 10^-6 M; 1 µM
Text: as §1

Acid phosphatase [10] = assay: Mouse macrophage acid phosphatase activity; assay type: cell-based; settings: read-out: Acid Phosphatase IC50; Table VII; mouse macrophage cultured cells, 60 min incubation
Aryl sulphatase [11] = assay: Mouse macrophage aryl sulphatase activity; assay type: cell-based; settings: read-out: Aryl Sulphatase IC50; Table VII; mouse macrophage cultured cells, 60 min incubation
Trypsin [12] = assay: Mouse macrophage trypsin (BAEE) activity; assay type: cell-based; settings: read-out: Trypsin BAEE IC50; Table VIII; mouse macrophages, 60 min incubation
Elastase [13] = assay: Mouse macrophage elastase activity; assay type: cell-based; settings: read-out: Elastase IC50; Table VIII; mouse macrophages, 60 min incubation
[14] = system: Prostaglandin cyclooxygenase; assay: Mouse macrophage prostaglandin cyclooxygenase activity; assay type: cell-based; settings: read-out: Prostaglandin Cyclooxygenase IC50; Table VIII; mouse macrophages, 60 min incubation
Text: 3. Mouse macrophages J774A.1 BALB/c
as §6

Trypsin [15] = assay: Human osteoporosis fibroblasts trypsin (BAEE) activity; assay type: cell-based; settings: read-out: Trypsin BAEE IC50; Table XI; human osteoporosis fibroblasts, 60 min incubation
Text: 1. Trypsin- N-benzoyl-L-arginine ethyl ester pH 8.0, hydrolytic product 253 nm.

Cathepsin D [16] = target: T4, Cathepsin D (Homo sapiens, UniProt P07339); assay: Human osteoporosis fibroblasts cathepsin D (azo-casein) activity; assay type: cell-based; settings: read-out: Cathepsin D IC50; Table X; human osteoporosis fibroblasts, DMEM +10% FCS + P/S
T4 construct: azocasein assay pH 5.0
T4 sequence (P07339 65-412): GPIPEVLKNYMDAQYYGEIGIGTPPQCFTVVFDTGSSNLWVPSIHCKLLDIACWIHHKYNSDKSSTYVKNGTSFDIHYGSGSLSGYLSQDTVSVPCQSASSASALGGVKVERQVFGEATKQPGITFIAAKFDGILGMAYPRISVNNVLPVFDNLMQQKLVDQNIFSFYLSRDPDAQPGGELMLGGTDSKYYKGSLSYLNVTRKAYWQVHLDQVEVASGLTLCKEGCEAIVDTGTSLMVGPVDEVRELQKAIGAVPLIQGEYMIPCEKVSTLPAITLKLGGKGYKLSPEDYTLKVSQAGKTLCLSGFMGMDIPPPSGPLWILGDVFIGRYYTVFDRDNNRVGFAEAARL
Text: Osteoporosis Human Fibroblast-CRL-1140, Be SA1

Acid phosphatase [17] = assay: Human osteoporosis fibroblasts acid phosphatase activity; assay type: cell-based; settings: read-out: Acid Phosphatase IC50; Table X; human osteoporosis fibroblasts
Text: as §3

Aryl sulphatase [18] = assay: Human osteoporosis fibroblasts aryl sulphatase activity; assay type: cell-based; settings: read-out: Aryl Sulphatase IC50; Table X; human osteoporosis fibroblasts
Text: 3. Aryl sulphatase- p-nitrocatechol sulfate, pH
5. 8 p-nitro-catechol product 510 nm.

Elastase [19] = assay: Human osteoporosis fibroblasts elastase activity; assay type: cell-based; settings: read-out: Elastase IC50; Table XI; human osteoporosis fibroblasts, 60 min incubation
Text: 2. Elastase- N-succinyl-L-alanyl-L-alanine-p-nitroanilide, pH 8.0, p-nitro anilide 410 nm.

[20] = system: Prostaglandin cyclooxygenase; assay: Human osteoporosis fibroblasts prostaglandin cyclooxygenase activity; assay type: cell-based; settings: read-out: Prostaglandin Cyclooxygense IC50, Table XI, 60 min incubation
Cathepsin [21] = assay: Human leukocyte cathepsin; assay type: cell-based; settings: read-out: Cathepsin IC50; Table XII; human leukocytes, 60 min incubation
Text: 5. Human peripheral leukocytes, RPMI-1788
as §4

Hydroxyproline = assay: Serum and urine hydroxyproline levels in vivo; settings: Cf1 male mice, 8 mg/kg/day I.P. 14 days, N=6
Calcium = assay: Serum and urine calcium levels in vivo; settings: Cf1 male mice, 8 mg/kg/day I.P. 14 days, N=6
Phosphorus = assay: Serum and urine inorganic phosphorus levels in vivo; settings: Cf1 male mice, 8 mg/kg/day I.P. 14 days, N=6
Cf1 male mice [22] = assay: Writhing reflex, 0.6% acetic acid; assay type: in vivo; set-up: response vs control in vivo: dose or concentration left out as unconfirmed; settings: Mus musculus, ip, read-out: Writhing Reflex Cf1 Mice
5'-lipoxygenase = target: T5, 5'-lipoxygenase (Mus musculus, UniProt P48999); assay: Mouse hepatic 5'-lipoxygenase activity; assay type: biochemical
T5 construct: Cf1 male mouse hepatic 10% homogenates; from tissue; host or cells: CF1 male mouse liver, 10% homogenate
T5 sequence (P48999 1-674): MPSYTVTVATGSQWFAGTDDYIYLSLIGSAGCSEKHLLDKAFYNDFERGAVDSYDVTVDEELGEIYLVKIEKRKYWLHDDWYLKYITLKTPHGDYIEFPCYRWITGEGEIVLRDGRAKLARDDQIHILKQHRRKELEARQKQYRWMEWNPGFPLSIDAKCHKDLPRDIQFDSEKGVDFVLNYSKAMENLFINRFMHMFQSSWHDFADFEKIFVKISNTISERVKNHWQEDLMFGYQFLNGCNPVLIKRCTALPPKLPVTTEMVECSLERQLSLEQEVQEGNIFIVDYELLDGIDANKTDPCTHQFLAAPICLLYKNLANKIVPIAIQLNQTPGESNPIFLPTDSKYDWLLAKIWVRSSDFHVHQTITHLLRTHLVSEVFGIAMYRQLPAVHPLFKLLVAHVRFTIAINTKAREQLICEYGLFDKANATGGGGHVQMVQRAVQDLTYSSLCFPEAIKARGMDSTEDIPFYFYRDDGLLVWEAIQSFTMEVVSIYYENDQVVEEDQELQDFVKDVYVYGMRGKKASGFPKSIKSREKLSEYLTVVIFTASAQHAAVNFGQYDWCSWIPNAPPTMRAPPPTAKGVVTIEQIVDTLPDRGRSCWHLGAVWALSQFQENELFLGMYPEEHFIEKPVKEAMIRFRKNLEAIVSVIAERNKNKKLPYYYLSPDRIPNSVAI
Text: as §1
5'-lipoxygenase Mylari, B.L., et al, J. Med.

[23] = target: Clostridium histolyticum Collagenase Type II; assay: Commercial collagenase type II; assay type: biochemical; settings: Table IX; commercial enzyme preparation
Text: 4. Collagenase II, Clostridium histolyticum, cartilage collagen.

[24] = system: urinary excretion of calcium, magnesium, phosphorus; settings: in the diet at 3 mg/day; cited from earlier work

SMILES: C[N+](C)(C)[BH2-]C#N [Compound 2, Trimethylamine-cyanoborane]
- LD50 at 336 h (in vivo): 70 mg/kg
- Anti-inflammatory (Cf1 male mice [1]): 42 % Control
- Anti-Inflammatory Activity Sprague Dawley Rats (Sprague Dawley Rats): 65 % Control
- Writhing (Cf1 male mice [2]): 18 % Control
- Anti-arthritic (Sprague Dawley male rats [3]): 4 % Control
- Anti-pleurisy (Sprague Dawley male rats [4]): 65 % Control
- Mouse Liver Acid Phosph. (Acid phosphatase [5]; 5 × 10^-6 M, N=6, 5 µM): 69 + 4 % Control
- IC50 (Acid phosphatase [5]): 3.51 µM
- activity at 5 µM (Cathepsin D [6]; pH 5, read-out: Mouse Liver Cathep.): 6%
- IC50 (Cathepsin D [6]): 0.72 µM
- Rat PMNs Acid Phoph. (Acid phosphatase [7]): 35 + 5 % Control
- activity at 5 µM (Cathepsin [8]): 4%
- PMNs cAMP (cAMP): 245 % Control
- IC50 (Prostaglandin synthetase): 5.9 µM
- Hepatic Oxidative Phosphorylation Succinate State 3 [9]: 51 + 20 % Control
- Hepatic Oxidative Phosphorylation Succinate State 4 [9]: 133 + 20 % Control
- Hepatic Oxidative Phosphorylation alpha-Ketoglutrate State 3 [9]: 41 + 9 % Control
- Hepatic Oxidative Phosphorylation alpha-Ketoglutrate State 4 [9]: 85 + 21 % Control
- IC50 (Acid phosphatase [10]): 1.05 µM
- IC50 (Aryl sulphatase [11]): 9.29 µM
- IC50 (Trypsin [12]): 1.41 µM
- IC50 (Elastase [13]): 1.35 µM
- IC50 [14]: 5.88 µM
- IC50 (Trypsin [15]): 3.98 µM
- IC50 (Cathepsin D [16]): 2.01 µM
- IC50 (Acid phosphatase [17]): 15.9 µM
- IC50 (Aryl sulphatase [18]): 8.87 µM
- IC50 (Elastase [19]): 3.29 µM
- IC50 [20]: 4.26 µM
- IC50 (Cathepsin [21]): 77.1 µM
- Hydroxyproline serum (Hydroxyproline): 71.7 % Control
- Hydroxyproline urine (Hydroxyproline): 42.5 % Control
- Calcium serum (Calcium): 109.7 % Control
- Calcium urine (Calcium): 50.8 % Control
- Phosphorus serum (Phosphorus): 81.6 % Control
- Phosphorus urine (Phosphorus): 39.6 % Control
- response vs control in vivo (Cf1 male mice [22]): 18%

SMILES: C[NH+](C)[BH2-]C#N [Compound 10, Dimethylamine-cyanoborane]
- Anti-Inflammatory Activity Sprague Dawley Rats (Sprague Dawley Rats): 61 % Control
- IC50 (Acid phosphatase [5]): 8.9 µM
- IC50 (Cathepsin D [6]): 3.2 µM
- IC50 (5'-lipoxygenase): 22.9 µM
- IC50 (Acid phosphatase [10]): 1.13 µM
- IC50 (Aryl sulphatase [11]): 9 µM
- IC50 (Trypsin [12]): 2.44 µM
- IC50 (Elastase [13]): 2.53 µM
- IC50 [14]: 5.92 µM
- IC50 (Trypsin [15]): 6.43 µM
- IC50 (Cathepsin D [16]): 1.28 µM
- IC50 (Acid phosphatase [17]): 8.7 µM
- IC50 (Aryl sulphatase [18]): 7.91 µM
- IC50 (Elastase [19]): 3.36 µM
- IC50 [20]: 5.58 µM
- IC50 [23]: 106 µM
- IC50 (Cathepsin [21]): 53.8 µM
- response vs control in vivo (Cf1 male mice [22]): 14.7%

SMILES: C[B-](C#N)(C#N)[N+](C)(C)C [Compound 16, Trimethylamine-methyldicyanoborane]
- IC50 (Acid phosphatase [10]): 1.1 µM
- IC50 (Aryl sulphatase [11]): 8.48 µM
- IC50 (Trypsin [12]): 1.62 µM
- IC50 (Elastase [13]): 2.02 µM
- IC50 [14]: 3.05 µM
- IC50 (Trypsin [15]): 3.35 µM
- IC50 (Elastase [19]): 3.6 µM
- IC50 [20]: 9.29 µM
- IC50 [23]: 110 µM
- IC50 (Cathepsin [21]): 65.2 µM
- response vs control in vivo (Cf1 male mice [22]): 33.9%

SMILES: O.O.O.O.O.O.O.O.O.O.[Na+].[Na+].[O-]B1OB2OB([O-])OB(O1)O2 [sodium borate]
- urinary excretion of calcium, magnesium and perhaps phosphorus [24]: blocks the urinary excretion of calcium, magnesium and perhaps phosphorus
